The results in this text go back to US11780826B2 (Amgen Inc., priority 2017, dated 2023).

This assay concerns Bovine cardiac myofibrils. The assay can be described thus: In vitro model of dose-dependent myofibril ATPase modulation (AC1.4, pyruvate kinase/lactate dehydrogenase-coupled ATPase assay at pCa25). Type of assay: biochemical. The conditions noted are these: concentration at which ATPase activity was 1.4-fold higher than the bottom of the dose curve, mean of a minimum of two independent tests. The method in brief: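 Bovine cardiac myofibrils, detergent-treated; 0.25-1.0 mg/ml. Buffer: K-PIPES 12 mM, MgCl2 2 mM, DTT 1 mM, BSA 0.1 mg/ml, pH 6.80, 22° C; Ca2+ set by EGTA/CaCl2. ATP 1 mM, NADH/PEP-coupled, A340. 4-parameter fit; n≥2.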
As for `N#CC1CN(S(=O)(=O)N2CCC[C@H](C(=O)N3[C@@H]4C[C@@H]4C[C@H]3C(=O)NCc3ccc(C(F)(F)F)cc3)C2)C1` [Example 801, (1R,3S,5R)-2-(((3S)-1-((3-cyano-1-azetidinyl)sulfonyl)-3-piperidinyl)carbonyl)-N-(4-(trifluoromethyl)benzyl)-2-azabicyclo[3.1.0]hexane-3-carboxamide], the AC1.4 was found to be 9.578 µM.

With `CCS(=O)(=O)c1cccc(C(=O)N2[C@@H](C(=O)N[C@H](C)c3cc(F)c(Cl)cc3F)C[C@H]3C[C@H]32)c1` [Example 513, (1R,3R,5R)-N-((1R)-1-(4-chloro-2,5-difluorophenyl)ethyl)-2-(3-(ethylsulfonyl)benzoyl)-2-azabicyclo[3.1.0]hexane-3-carboxamide], the AC1.4 worked out at 2.3655 µM. Then `Cc1cncc(C(=O)N2[C@@H](C(=O)N[C@@H](c3cc(F)c(C(F)(F)F)cc3F)C3CC3)C[C@H]3C[C@H]32)c1` [Example 797, (1R,3R,5R)-N-((R)-cyclopropyl(2,5-difluoro-4-(trifluoromethyl)phenyl)methyl)-2-((5-methyl-3-pyridinyl)carbonyl)-2-azabicyclo[3.1.0]hexane-3-carboxamide], with 9.447 µM; and `CC(C)C[C@@H](NC(=O)[C@H]1CCCN1C(=O)[C@H]1CCCN(S(=O)(=O)N2CC(C#N)C2)C1)c1ccc(C(F)(F)F)cc1` [Example 68, 1-(((3S)-1-((3-cyano-1-azetidinyl)sulfonyl)-3-piperidinyl)carbonyl)-N-((1R)-3-methyl-1-(4-(trifluoromethyl)phenyl)butyl)-D-prolinamide], with 0.0784 µM; and `CS(=O)(=O)c1ccc(NC2CCC2)c(C(=O)N2[C@@H](C(=O)N[C@@H](c3ccc(C(F)(F)F)cc3F)C3CC3)C[C@H]3C[C@H]32)c1` [Example 40, (1R,3R,5R)-2-(2-(cyclobutylamino)-5-(methylsulfonyl)benzoyl)-N-((R)-cyclopropyl(2-fluoro-4-(trifluoromethyl)phenyl)methyl)-2-azabicyclo[3.1.0]hexane-3-carboxamide], with 0.0398 µM. The compound `C[C@@H](NC(=O)[C@H]1CCCN1C(=O)[C@H]1CCCN(S(=O)(=O)N2CC(S(C)(=O)=O)C2)C1)c1ccc(Cl)cc1` [Example 150, N-((1R)-1-(4-chlorophenyl)ethyl)-1-(((3S)-1-((3-(methylsulfonyl)-1-azetidinyl)sulfonyl)-3-piperidinyl)carbonyl)-D-prolinamide] displayed an AC1.4 of 0.2589 µM. Then `N#CC1CN(S(=O)(=O)c2cc(F)cc(C(=O)N3CCC[C@@H]3C(=O)NCc3ccc(C(F)(F)F)cc3)c2)C1` [Example 53, 1-((3-((3-cyano-1-azetidinyl)sulfonyl)-5-fluorophenyl)carbonyl)-N-(4-(trifluoromethyl)benzyl)-D-prolinamide], with 0.0574 µM; and `COc1ccc(F)cc1C(C)NC(=O)[C@H]1CCCN1C(=O)[C@H]1CCCN(S(=O)(=O)N2CC(C#N)C2)C1` (stereo partly drawn) [Example 633, (2R)-1-((S)-1-((3-cyanoazetidin-1-yl)sulfonyl)piperidine-3-carbonyl)-N-(1-(5-fluoro-2-methoxyphenyl)ethyl)pyrrolidine-2-carboxamide], with 4.0935 µM. The result for `N#CC1CN(S(=O)(=O)N2CCC[C@H](C(=O)N3CCC[C@@H]3C(=O)N[C@@H](c3ccc(Cl)cc3F)C3CC3)C2)C1` [Example 2, N-((R)-(4-chloro-2-fluorophenyl)(cyclopropyl)methyl)-1-(((3S)-1-((3-cyano-1-azetidinyl)sulfonyl)-3-piperidinyl)carbonyl)-D-prolinamide] reads 0.01475 µM. The result for `N#CC1CN(S(=O)(=O)N2CCC[C@H](C(=O)N3CCC[C@@H]3C(=O)NCc3ccc(Cl)nc3)C2)C1` [Example 613, N-((6-chloro-3-pyridinyl)methyl)-1-(((3S)-1-((3-cyano-1-azetidinyl)sulfonyl)-3-piperidinyl)carbonyl)-D-prolinamide] reads 3.8643 µM.

Compound `O=C(N[C@@H](c1cc(F)c(Cl)cc1F)C1COC1)[C@H]1C[C@H]2C[C@H]2N1C(=O)c1cc(C2CC2)ccn1` [Example 471, (1R,3R,5R)-N-((R)-(4-chloro-2,5-difluorophenyl)(3-oxetanyl)methyl)-2-((4-cyclopropyl-2-pyridinyl)carbonyl)-2-azabicyclo[3.1.0]hexane-3-carboxamide] came in with an AC1.4 of 1.996 µM. In the case of `N#CC1CN(S(=O)(=O)c2cccc(C(=O)N3CCC[C@@H]3C(=O)N[C@H](CC(F)(F)F)c3ccc(C(F)(F)F)cc3)c2)C1` [Example 7, 1-(3-((3-cyano-1-azetidinyl)sulfonyl)benzoyl)-N-((1R)-3,3,3-trifluoro-1-(4-(trifluoromethyl)phenyl)propyl)-D-prolinamide], the AC1.4 stood at 0.01905 µM. The result for `N#CC1CN(S(=O)(=O)N2CCO[C@H](C(=O)N3CCC[C@@H]3C(=O)NCc3ccc(Cl)cc3F)C2)C1` [Example 187, N-(4-chloro-2-fluorobenzyl)-1-(((2S)-4-((3-cyano-1-azetidinyl)sulfonyl)-2-morpholinyl)carbonyl)-D-prolinamide] reads 0.3409 µM; that for `CN(Cc1ccc(C(F)(F)F)cc1)C(=O)[C@H]1CCCN1C(=O)c1cccc(S(=O)(=O)N2CC(C#N)C2)c1` [Example 75, 1-((3-((3-cyano-1-azetidinyl)sulfonyl)phenyl)carbonyl)-N-methyl-N-(4-(trifluoromethyl)benzyl)-D-prolinamide], 0.1006 µM. Then `Cc1ccc([C@@H](C)NC(=O)[C@H]2CCCN2C(=O)[C@H]2CCCN(S(=O)(=O)N3CC(C#N)C3)C2)c(F)c1` [Example 98, 1-(((3S)-1-((3-cyano-1-azetidinyl)sulfonyl)-3-piperidinyl)carbonyl)-N-((1R)-1-(2-fluoro-4-methylphenyl)ethyl)-D-prolinamide], with 0.1474 µM. Then `NS(=O)(=O)c1cc(C(=O)N2CCC[C@@H]2C(=O)N[C@@H](c2ccc(C(F)(F)F)cc2F)C2CC2)c(Cl)cc1F` [Example 777, 1-(2-chloro-4-fluoro-5-sulfamoylbenzoyl)-N-((R)-cyclopropyl(2-fluoro-4-(trifluoromethyl)phenyl)methyl)-D-prolinamide], with 8.3805 µM; and `N#CC1CN(S(=O)(=O)N2CCC[C@H](C(=O)N3CCC[C@@H]3C(=O)NCc3cccc(F)c3Cl)C2)C1` [Example 418, N-(2-chloro-3-fluorobenzyl)-1-(((3S)-1-((3-cyano-1-azetidinyl)sulfonyl)-3-piperidinyl)carbonyl)-D-prolinamide], with 1.5305 µM. In turn, `O=C(N[C@@H](c1ccc(C(F)(F)F)cc1F)C1CC1)[C@H]1C[C@H]2C[C@H]2N1C(=O)c1cccc(S(=O)(=O)C2CC2)c1` [Example 211, (1R,3R,5R)-N-((R)-cyclopropyl(2-fluoro-4-(trifluoromethyl)phenyl)methyl)-2-(3-(cyclopropylsulfonyl)benzoyl)-2-azabicyclo[3.1.0]hexane-3-carboxamide] had an AC1.4 of 0.4488 µM.

`O=C(NCc1ccc(C(F)(F)F)cc1)[C@H]1CCCN1C(=O)[C@H]1CCCN(S(=O)(=O)C2CCC2)C1` [Example 780, (R)-1-((S)-1-(cyclobutylsulfonyl)piperidine-3-carbonyl)-N-(4-(trifluoromethyl)benzyl)pyrrolidine-2-carboxamide] gave an AC1.4 of 8.4235 µM. Then `CCS(=O)(=O)c1cccc(C(=O)N2[C@@H](C(=O)N[C@@H](c3ccc(C(F)(F)F)cc3)C3(O)CCC3)C[C@H]3C[C@H]32)c1` [Example 522, (1R,3R,5R)-2-(3-(ethylsulfonyl)benzoyl)-N-((S)-(1-hydroxycyclobutyl)(4-(trifluoromethyl)phenyl)methyl)-2-azabicyclo[3.1.0]hexane-3-carboxamide], with 2.4145 µM; and `O=C(N[C@@H](c1cc(F)c(Cl)cc1F)C1COC1)[C@H]1C[C@H](O)CN1C(=O)c1ccnc(C(F)(F)F)c1` [Example 723, (4S)-N-((R)-(4-chloro-2,5-difluorophenyl)(3-oxetanyl)methyl)-4-hydroxy-1-((2-(trifluoromethyl)-4-pyridinyl)carbonyl)-D-prolinamide], with 6.4425 µM; and `N#CC1CN(S(=O)(=O)N2CCC[C@H](C(=O)N3CCC[C@@H]3C(=O)NCc3ccc(OC(F)F)cc3)C2)C1` [Example 435, 1-(((3S)-1-((3-cyano-1-azetidinyl)sulfonyl)-3-piperidinyl)carbonyl)-N-(4-(difluoromethoxy)benzyl)-D-prolinamide], with 1.681 µM.

On to `CS(=O)(=O)c1cccc(C(=O)N2C[C@H](C(F)F)C[C@@H]2C(=O)N[C@@H](c2ccc(C(F)(F)F)cc2F)C2CC2)c1` [Example 354, (4R)-N-((R)-cyclopropyl(2-fluoro-4-(trifluoromethyl)phenyl)methyl)-4-(difluoromethyl)-1-(3-(methylsulfonyl)benzoyl)-D-prolinamide], for which the AC1.4 was found to be 1.0425 µM. The result for `N#CC1CN(S(=O)(=O)N2CCC[C@H](C(=O)N3CCC[C@@H]3C(=O)N[C@H](CC3CC3)c3ccc(C(F)(F)F)cc3)C2)C1` [Example 14, 1-(((3S)-1-((3-cyano-1-azetidinyl)sulfonyl)-3-piperidinyl)carbonyl)-N-((1R)-2-cyclopropyl-1-(4-(trifluoromethyl)phenyl)ethyl)-D-prolinamide] reads 0.0227 µM.

In the case of `O=C(N[C@@H](c1ccc(C(F)(F)F)c(F)c1)C1CC1)[C@H]1C[C@H]2C[C@H]2N1C(=O)c1ccnc(S(=O)(=O)C2CC2)c1` [Example 686, (1R,3R,5R)-N-((R)-cyclopropyl(3-fluoro-4-(trifluoromethyl)phenyl)methyl)-2-((2-(cyclopropylsulfonyl)-4-pyridinyl)carbonyl)-2-azabicyclo[3.1.0]hexane-3-carboxamide], the AC1.4 was found to be 5.284 µM.
